Legend:
Type in all cases: in vivo, human
[1] = Phase 1 SAD/MAD clinical study in healthy volunteers: safety and tolerability
Source text: (§1) This is a study of the safety, tolerability, pharmacokinetics (PK) and pharmacodynamics (PD) of Compound 1 from a Phase 1, single ascending dose (SAD) and multiple ascending dose (MAD) clinical study.
(§2) Healthy volunteers received oral placebo vs. single oral doses of Compound 1 in the SAD cohorts, or oral placebo vs. single oral doses of Compound 1 once daily (QD) for 14 consecutive days in the MAD cohorts. Safety assessments included AEs, vital signs, ECGs, and laboratory parameters. PK/PD blood sampling was performed pre-dose and Days 1 and 2 in the SAD cohorts, and Days 1, 2, 7, 8 and 12-15 in the MAD cohorts. Target engagement was assessed as change from baseline in H3K27me3/Total Histone H3 ratio. PD assessments included changes in F reticulocytes and HBG mRNA.
(§3) Compound 1 was evaluated in […] healthy volunteer (HV) SAD cohorts (2 to 60 mg), […] HV MAD cohorts (2 to 30 mg QD, 14-day dosing). SAD dose cohorts include 2 mg, 4 mg, 6 mg, 10 mg, 20 mg, 30 mg, 40 mg, and 60 mg Compound 1. MAD dose cohorts include 2 mg, 4 mg, 6 mg, 10 mg, 20 mg, and 30 mg Compound 1.

[2] = Phase 1 SAD/MAD clinical study in healthy volunteers: pharmacokinetics; settings: oral, across all doses
Source text: as §1, §2, §3

[3] = tested on: H3K27me3/Total Histone H3 ratio; experiment: Phase 1 SAD/MAD study: target engagement (change from baseline in H3K27me3/Total Histone H3 ratio); settings: healthy volunteers; across the entire dose range
Method: as §2

HBG mRNA = experiment: Phase 1 MAD study: HBG mRNA induction
Method: as §2
Safety Follow-up (SFU) samples were collected 7-10 days post 14-day treatment period.
(§4) Data in FIG. 1 and FIG. 2 are presented as geometric LS mean ratios (to placebo) with a 95% confidence interval. Mixed-effects model for repeated measures (MMRM) analysis was performed for Day 7 and Day 14 measurements. An analysis of covariance (ANCOVA) was utilized for SFU data. In FIG. 1 and FIG. 2, “PBO” is placebo.

F-reticulocytes = experiment: Phase 1 MAD study: F-reticulocytes; settings: safety follow-up (SFU) visits 7-10 days post 14-day treatment; dosed at ≥6 mg
Method: as §2
Increases in F-cells and HbF protein are projected with longer treatment duration.
as §4

fetal hemoglobin (HbF) = experiment: Phase 1 open-label multiple-dose study in subjects with sickle cell disease: HbF induction by HPLC
Source text: (§5) This is a Phase 1 multicenter, open-label study evaluating the safety, tolerability, pharmacokinetics (PK), fetal hemoglobin (HbF) induction and biological activity of Compound 1 in subjects 18-65 years of age with sickle cell disease (SCD). This study comprises 2 parts and is being conducted in subjects 18-65 years of age with sickle cell disease (SCD) either taking hydroxyurea (HU) at a stable dose for at least the preceding 3 months, or not taking hydroxyurea (HU).
(§6) The study consists of two phases. In Part A, Cohort 1 received 6 mg of Compound 1 by mouth once daily for 4 weeks, Cohort 2 received 2 mg of Compound 1 by mouth once daily for 4 weeks, and Cohort 3 received 12 mg of Compound 1 by mouth once daily for 4 weeks. An additional cohort may receive up to and including 20 mg of Compound 1 by mouth once daily for 4 weeks depending on the Data Monitoring Committee [DMC] review. Additional cohorts (up to five total cohorts) may be added based on the safety and pharmacokinetic data observed in subjects from the prior and ongoing cohorts. Up to 10 subjects have been or will be enrolled in each treatment arm.
Part B is the extension study. Eligible subjects who consent to continue in the extension study continue on treatment at the same dose level selected in Part A for an additional 8 weeks. Subjects who decline to participate in the extension study are followed for an additional 2-3 weeks.
The primary endpoints of the study are to evaluate the safety and tolerability of Compound 1 as measured by the frequency of adverse events and to evaluate single and multiple-dose pharmacokinetics of Compound 1 in subjects with sickle cell disease. Secondary endpoints include evaluating the effect of Compound 1 on fetal hemoglobin induction in peripheral blood, as well as changes from baseline in reticulocytes, in subjects with sickle cell disease. Exploratory endpoints include biomarkers of hemolysis, target engagement, incidence of vaso-occlusive crises (VOCs), and quality of life (QOL) measurements.

[4] = Phase 1 open-label multiple-dose study in subjects with sickle cell disease: safety and tolerability; settings: oral once daily
Source text: as §5, §6
Part B is the extension study. […]
(§7) The primary endpoints of the study are to evaluate the safety and tolerability of Compound 1 as measured by the frequency of adverse events and to evaluate single and multiple-dose pharmacokinetics of Compound 1 in subjects with sickle cell disease. […]

red blood cells = experiment: Phase 1 open-label study in subjects with sickle cell disease: hemolysis and anemia markers (RDW, reticulocytes, total hemoglobin); settings: SCD Cohort 1, 6 mg once daily
Source text: as §5, §6, §7

[5] = SAD 2 to 60 mg, MAD 2 to 30 mg QD 14-day oral dosing

## Cc1ncccc1-c1cc2c(n3cnnc13)NCc1c(F)ccc3c1[C@H](CO3)CO2 [Compound 1]
[1]; [5]
  SAEs or discontinuations: no SAEs or discontinuations
  Treatment-related adverse events: mild (Grade 1 or 2)
[1]; SAD and MAD cohorts
  Tolerability / safety signals: generally well tolerated and no unexpected safety signals were detected
[2]
  PK profiles: dose proportionality across all doses
[3]
  Target engagement: Robust target engagement
HBG mRNA; MAD cohorts, FIG. 1
  HBG mRNA induction dependence: both time- and dose-dependent
HBG mRNA; healthy volunteers, 6-30 mg MAD cohorts, QD 14 days oral
  placebo-adjusted increases from baseline in HBG mRNA: 2.4-6.2 fold
F-reticulocytes
  mean fold increase in F-reticulocytes: 1.7-3.9 fold
Fetal hemoglobin (HbF); SCD Cohort 1, 6 mg once daily, Subjects 7 and 8
  response differences in HU versus non-HU treated subjects: no apparent response differences
Fetal hemoglobin (HbF); SCD Cohort 1, 6 mg orally once daily, Subjects 7 and 8 (with and without HU), day 84
  HbF increase: 6.8%-9.5%
Fetal hemoglobin (HbF); SCD Cohorts 1 and 2 (6 mg and 2 mg orally once daily)
  HbF response across doses: dose-dependent, clinically relevant and consistent increase in HbF
Fetal hemoglobin (HbF); SCD, a subject in the 12 mg dose cohort (Cohort 3), after 42 days of treatment
  absolute HbF increases from baseline: up to 10.0%
[4]
  Tolerability: generally well tolerated
Red blood cells
  absolute reticulocyte count and total hemoglobin: reductions in reticulocytes and increases in total hemoglobin
Red blood cells; Subjects 7 and 8
  red cell distribution width (RDW): reductions in RDW
